What all share (type): functional, cell-based
One assay deals with NB-4. In words: Cytotoxicity against human NB4 cells after 48 hrs by WST-8 assay. The note with it: NB-4, 48 h.
Another assay relates to PC-3. Description: Cytotoxicity against human PC3 cells after 48 hrs by WST-8 assay. Conditions: PC-3, 48 h.
A further assay deals with MCF7. In words: Cytotoxicity against human MCF7 cells after 48 hrs by WST-8 assay. The note with it: MCF7, 48 h.
In a further assay the test system is SH-SY5Y. In words: Cytotoxicity against human SH-SY5Y cells after 48 hrs by WST-8 assay.
The test system of a further assay is A549. Description: Cytotoxicity against human A549 cells after 48 hrs by WST-8 assay. Conditions: A549, 48 h.

This passage reports IC50 results from ChEMBL document CHEMBL1151478, “ent-Kaurane diterpenoids from Isodon scoparius” (J Nat Prod, 2009).

Regarding `CC(=O)CC[C@H]1C(=O)[C@@]23[C@H](O)C[C@@H]4[C@@](C)(CO)CCC[C@@]4(C)[C@@H]2C(=O)[C@H](O)[C@H]1[C@H]3O`, the IC50 was more than 10000 nM with NB-4; more than 10 µM in the assay on PC-3; more than 10 µM with MCF7; more than 10 µM in the assay on SH-SY5Y; more than 10 µM with A549.

`COc1cc([C@@H]2c3cc4c(cc3[C@@H](O[C@@H]3O[C@@H]5CO[C@@H](C)O[C@H]5[C@H](O)[C@H]3O)[C@H]3COC(=O)[C@H]23)OCO4)cc(OC)c1O` [ETOPOSIDE]: the IC50 with NB-4 stood at 1300 nM; in the assay on PC-3, 13.6 µM; in the assay on SH-SY5Y it was 1.7 µM; in the assay with A549 it was 1.7 µM.

For `C=C1C(=O)[C@@]23[C@H](O)C[C@@H]4C(C)(C)CC[C@H](O)[C@@]4(C)[C@@H]2C[C@H](O)[C@@H]1[C@H]3O` [EXCISANIN A], the IC50 in the assay with NB-4 was 8200 nM; in the assay with PC-3 it was more than 10 µM; with MCF7 it was more than 10 µM; in the assay on SH-SY5Y, more than 10 µM; with A549, more than 10 µM.

`C=C1C(=O)[C@@]23CC[C@@H]4[C@@](C)(CO)CC[C@H](O)[C@@]4(C)[C@@H]2CC[C@@H]1[C@H]3O` [EXCISANIN K]: the IC50 was 8700 nM in the assay with NB-4; more than 10 µM in the assay with PC-3; more than 10 µM with MCF7; more than 10 µM in the assay on SH-SY5Y; more than 10 µM with A549.

As to `C=C1C(=O)[C@@]23[C@H](O)C[C@@H]4[C@@](C)(CO)CCC[C@@]4(C)[C@@H]2C(=O)C[C@@H]1[C@H]3O` [HENRYINE A], the IC50 with NB-4 is 2300 nM; in the assay on PC-3, 7 µM; in the assay with MCF7, more than 10 µM; with SH-SY5Y, 5.1 µM; in the assay with A549 it was more than 10 µM.

In the case of `CC1(C)CCC[C@]2(C)[C@@H]1C[C@@H](O)[C@@]13C(=O)[C@@]4(CO4)[C@@H]([C@H]1O)[C@@H](O)C(=O)[C@@H]23` [ISOSCOPARIN D], the IC50 is more than 10000 nM in the assay on NB-4; more than 10 µM with PC-3; more than 10 µM with MCF7; more than 10 µM in the assay with SH-SY5Y; more than 10 µM in the assay on A549.

For `C=C1[C@@H]2[C@@H](O)[C@H](O)[C@H]3[C@]4(C)CCCC(C)(C)[C@H]4CC(=O)[C@@]3([C@@H]1OC(C)=O)[C@@H]2O` [ISOSCOPARIN F], the IC50 in the assay on NB-4 is 2200 nM; with PC-3, more than 10 µM; with MCF7, 3.9 µM; in the assay with SH-SY5Y it was 9.2 µM; in the assay on A549, 9.9 µM.

Consider `C=C1[C@@H](O)[C@@]23[C@H](O)C[C@@H]4[C@@](C)(CO)CCC[C@@]4(C)[C@@H]2C(=O)C[C@@H]1[C@H]3O` [ISOSCOPARIN H], for which the IC50 was more than 10000 nM in the assay with NB-4; more than 10 µM in the assay with PC-3; more than 10 µM in the assay with MCF7; more than 10 µM in the assay with SH-SY5Y; more than 10 µM with A549.

In the case of `C=C1C(=O)[C@@]23[C@H](O)C[C@H]4[C@@](C)(CCC[C@]4(C)C=O)[C@@H]2[C@@H](O)C[C@@H]1[C@H]3O` [ISOSCOPARIN I], the IC50 in the assay on NB-4 is 4400 nM; in the assay with PC-3, more than 10 µM; with MCF7, more than 10 µM; in the assay with SH-SY5Y, more than 10 µM; in the assay with A549, more than 10 µM.

`C=C1C(=O)[C@@]23[C@H](O)C[C@@H]4C(C)(C)CCC[C@@]4(C)[C@@H]2C[C@H](O)[C@@H]1[C@H]3O` [ISOSCOPARIN L]: the IC50 is 700 nM with NB-4; more than 10 µM in the assay on PC-3; 2.2 µM in the assay with MCF7; 6.8 µM in the assay with SH-SY5Y; 6.4 µM with A549.

Consider `C=C1C(=O)[C@@]23[C@H](O)C[C@@H]4C(C)(C)CC[C@H](O)[C@@]4(C)[C@@H]2CC[C@@H]1[C@H]3O` [KAMEBANIN], for which the IC50 in the assay with NB-4 is 900 nM; in the assay with PC-3 it was more than 10 µM; in the assay with MCF7, 8.4 µM; with SH-SY5Y, 8.9 µM; in the assay with A549, 7.3 µM.

On to `C=C1[C@@H](O)[C@]23[C@H](O)[C@H]1CC[C@H]2[C@@]12CO[C@@]3(O)[C@@H](O)[C@@H]1C(C)(C)CC[C@@H]2OC(C)=O` [LASIOKAURINOL], for which the IC50 with NB-4 is more than 10000 nM; in the assay on PC-3, more than 10 µM; with MCF7, more than 10 µM; with SH-SY5Y, more than 10 µM; with A549, more than 10 µM.

Take `CC(=O)O[C@H]1C(=O)[C@@]2(C)[C@H]([C@H](OC(=O)c3ccccc3)[C@]3(O)C[C@H](OC(=O)[C@H](O)[C@@H](NC(=O)c4ccccc4)c4ccccc4)C(C)=C1C3(C)C)[C@]1(OC(C)=O)CO[C@@H]1C[C@@H]2O` [PACLITAXEL]: the IC50 in the assay with NB-4 was determined as 100 nM; in the assay with PC-3, 0.2 µM; in the assay on MCF7, 0.1 µM; in the assay with SH-SY5Y it was 0.2 µM; in the assay on A549, 0.1 µM.

For the compound `C=C1C(=O)[C@@]23[C@H](O)C[C@@H]4C(C)(C)CCC[C@@]4(C)[C@@H]2C(=O)[C@H](O)[C@@H]1[C@H]3O` [PHYLLOSTACHYSIN D], the IC50 was 300 nM with NB-4; more than 10 µM in the assay with PC-3; more than 10 µM in the assay on MCF7; more than 10 µM in the assay with SH-SY5Y; more than 10 µM with A549.

Take `C=C1C(=O)[C@@]23CC[C@@H]4C(C)(C)CC[C@H](O)[C@@]4(C)[C@@H]2[C@@H](O)C[C@@H]1[C@H]3O` [PHYLLOSTACHYSIN H]: the IC50 in the assay on NB-4 was more than 10000 nM; with PC-3, more than 10 µM; in the assay on MCF7, more than 10 µM; in the assay on SH-SY5Y, more than 10 µM; in the assay with A549, more than 10 µM.

On to `C=C1C(=O)[C@@]23[C@H](O)C[C@@H]4C(C)(C)CC[C@H](O)[C@@]4(C)[C@@H]2[C@@H](O)C[C@@H]1[C@H]3O` [RABDOINFLEXIN B], for which the IC50 in the assay with NB-4 was more than 10000 nM; in the assay on PC-3, more than 10 µM; in the assay with MCF7, more than 10 µM; in the assay on SH-SY5Y it was more than 10 µM; with A549 it was more than 10 µM.

Consider `C=C1C(=O)[C@@]23[C@H](O)C[C@@H]4C(C)(C)CCC[C@@]4(C)[C@@H]2[C@@H](O)[C@H](O)[C@@H]1[C@H]3OC(C)=O` [RABDOKUNMIN A], for which the IC50 in the assay with NB-4 is 2700 nM; in the assay with PC-3 it was more than 10 µM; in the assay on MCF7, more than 10 µM; in the assay on SH-SY5Y, more than 10 µM; with A549 it was 2.8 µM.

For `C=C1C(=O)[C@@]23[C@H](O)C[C@@H]4[C@@](C)(CO)CCC[C@@]4(C)[C@@H]2C[C@H](O)[C@@H]1[C@H]3O` [RABDOKUNMIN C], the IC50 in the assay on NB-4 is more than 10000 nM; in the assay with PC-3, more than 10 µM; with MCF7 it was more than 10 µM; in the assay on SH-SY5Y, more than 10 µM; in the assay with A549, more than 10 µM.

`C=C1C(=O)[C@@]23[C@H](O)C[C@@H]4[C@@](C)(CO)CCC[C@@]4(C)[C@@H]2[C@@H](O)C[C@@H]1[C@H]3O` [RABDOKUNMIN D]: the IC50 was more than 10000 nM with NB-4; more than 10 µM with PC-3; more than 10 µM in the assay with MCF7; more than 10 µM in the assay on SH-SY5Y; more than 10 µM in the assay on A549.

As to `C=C1C(=O)[C@@]23[C@H](O)C[C@@H]4[C@@](C)(CO)CCC[C@@]4(C)[C@@H]2C(=O)[C@H](O)[C@@H]1[C@H]3O` [RABDOLOXIN A], the IC50 in the assay on NB-4 was more than 10000 nM; in the assay on PC-3 it was more than 10 µM; with MCF7 it was more than 10 µM; with SH-SY5Y, more than 10 µM; in the assay with A549, more than 10 µM.

Consider `C=C1C(=O)[C@@]23[C@H](O)C[C@@H]4C(C)(C)CCC[C@@]4(C)[C@@H]2[C@@H](O)[C@H](O)[C@@H]1[C@H]3O` [RABDOLOXIN B], for which the IC50 with NB-4 is 2800 nM; with PC-3, more than 10 µM; in the assay on MCF7, more than 10 µM; in the assay on SH-SY5Y, more than 10 µM; in the assay on A549 it was 1.7 µM.
